Source: patent US20060093577A1, “Combination anti-viral compositions and methods of use” (priority 2004, published 2006)

Experiments:
[1] = in vitro; details: bovine
Method: MDBK cells were seeded into 96-well plates at a density of approximately 2×10^4 cells per well. The cultures were incubated 3-24 hours to permit attachment of the cells to the plates prior to infection and addition of compounds. […] The mean absorbance in each set of triplicate wells was determined. Antiviral activity was measured as MTS conversion relative to the differential between the conversion for cell (non-infected) and viral (non-drug-treated) controls.

[2] = test system: BVDV; test: Two-way combination inhibition-of-CPE assay, BVDV-infected MDBK cells, MOI 0.01 (MacSynergy, isobologram); format: cell-based, bovine viral diarrhea virus; details: for EC50: Bovine viral diarrhea virus isolates and strains, MDBK
Method: (§1) Each two-way combination was performed twice.
Initially, as was done in Example 1, individual compound potency (EC50) for inhibition of BVDV-induced cytopathic effects in MDBK cells was determined for each combination experiment (see Table 5). Minimal experiment-to-experiment variability in individual drug potency was observed.
A greater positive percent (synergy) volume is indicative of a synergistic effect. Values less than 25 μM/ml^2% or 25 μM(IU)/ml(well)^2% are insignificant; values between 25 and 50 μM/ml^2% or 25 and 50 μM(IU)/ml(well)^2% are considered minor but significant; values between 50 and 100 μM/ml^2% or μM(IU)/ml(well)^2% indicate moderate synergy that may be indicative of a significant synergistic effect in vivo; and values greater than 100 μM/ml^2% or μM(IU)/ml(well)^2% indicate strong synergy that is likely indicative of a significant synergistic effect in vivo.

[3] = test system: BVDV; test: Protection of MDBK cells from BVDV-induced cytotoxicity (MTS/PMS CPE reduction); format: cell-based; details: Bovine viral diarrhea virus isolates and strains
Method: Cell proliferation assays were performed using a non-radioactive cell proliferation MTS/PMS assay (MTS: 3-(4,5-dimethylthiazol-2-yl)-5-(3-carboxymethoxy phenyl)-2-(4-sulfophenyl)-2H-tetrazolium (Promega Corporation, Madison, Wis.); PMS: phenazine methosulfate (Sigma Aldrich, St. Louis, Mo.)). MDBK cells were seeded into 96-well plates at a density of approximately 2×10^4 cells per well. The cultures were incubated 3-24 hours to permit attachment of the cells to the plates prior to infection and addition of compounds. The appropriate number of PFU of BVDV were added to each well to achieve the desired MOI (0.1 or 0.01); the cells were exposed to the virus diluted at the appropriate concentration in phosphate buffered saline (PBS) containing 1% horse serum for 1 to 2 hours. The virus inoculum was then removed and the cells were washed with PBS containing 1% HS. The test compounds, castanospermine, ribavirin, and interferon-α were dissolved in cell growth media with 2% HS and added to the cells at varying concentrations, and then incubated at 37° C. in the presence of 5% CO2 for 3-4 days. Uninfected cells and infected, untreated cells (i.e., without compound) were used as additional controls. After the 3-4 days of incubation, a combined MTS/PMS solution was added into each well assay plate containing 100 μL of cells in culture medium to obtain final concentrations of 333 μg/ml MTS and 25 μM PMS. A spectrophotometer plate reader was used to measure the absorbance at 490 nm after incubation of the 96-well plate for 1 to 4 hours at 37° C. in a humidified, 5% CO2 atmosphere. The mean absorbance in each set of triplicate wells was determined. Antiviral activity was measured as MTS conversion relative to the differential between the conversion for cell (non-infected) and viral (non-drug-treated) controls. The cytopathic effect (CPE) reduction for each concentration of the tested compound, which correlated with antiviral activity, was calculated as follows. % CPE reduction=[(D−ND)/(NI−ND)]×100, in which D (drug-treated) is the absorbance of drug-treated cells; ND (non drug-treated) is the absorbance of untreated infected cells; and NI (non-infected) is the absorbance of non-infected cells.
The EC50 represents the concentration of the drug that protects 50% of the cells from BVDV induced cytotoxicity (i.e., 50% CPE reduction). CC50 equals the concentration that affects the viability of 50% of the MDBK cells.

[4] = test system: BVDV; test: Plaque reduction assay; format: cell-based; details: Bovine viral diarrhea virus isolates and strains
Method: The BVDV virus stock was serially diluted in phosphate buffered saline (PBS) containing 1-5% horse serum (HS). MDBK cells were grown to confluence in culture dishes and were infected at 37° C. with BVDV at various multiplicity of infection (<1 to >0.001). After 1.5 hours of adsorption, the inoculum was removed. The cell monolayer was overlaid with 0.5% agarose dissolved in cell growth media containing 5% HS with and without test compound(s) (castanospermine, ribavirin, or IFN-α). The dishes were incubated for 3 to 5 days at 37° C. under 5% CO2. The monolayer of MDBK cells was fixed with formaldehyde, stained with crystal violet or methylene blue according to standard methods, and then washed in double distilled water. Following washing, the plates air dried at room temperature. The virus plaques formed in the MDBK cell cultures were quantified by manual counting. The inhibitory activities of test compounds were determined by calculating the percent (%) reduction in plaques as follows: % reduction in plaques=[…].

[5] = test system: BVDV strain NADL; test: Inhibition of BVDV release from MDBK cells; format: cell-based; details: Bovine viral diarrhea virus isolates and strains, MOI about 0.01, 24 hours
Method: The cell cultures were incubated 3-24 hours to allow attachment of the cells to the tissue culture plates prior to infection and addition of compounds. The appropriate number of plaque forming units (PFU) of BVDV strain NADL (ATCC VR-534) diluted in sterile PBS containing 1% HS were added to each well to achieve the desired multiplicity of infection (MOI) (about 0.01). The cells were exposed to the virus at 37° C., 5% CO2 for 1.5 hours, and then washed with PBS. The test compounds, dissolved in cell growth media with 2% HS, were then added to the cells at varying concentrations. The plates were incubated at 37° C., 5% CO2 for 24 hours (one cycle of BVDV replication). The 96-well plates were then centrifuged at low speed to pellet the cells. The supernatant was serially diluted and used to infect a new monolayer of cells in 12-well plates. The cell monolayer was then overlaid with 0.5% agarose dissolved in cell growth media with 5% HS containing (1) castanospermine (Phytex, Australia); (2) ribavirin (Ribavirin, Sigma); (3) IFN-α2b (PBL Biomedical Laboratories, Piscataway, N.J.); or (4) alone (i.e., no added test compound). The treated cells were incubated for 3 to 5 days at 37° C. under 5% CO2, fixed with formaldehyde, stained with crystal violet or methylene blue, washed in double distilled water, and finally air dried at room temperature. Virus plaques formed were quantified by manual counting, and titer was determined.

[6] = test system: BVDV; test: Two-way combination inhibition-of-CPE assay, BVDV-infected MDBK cells, MOI 0.05 (Example 5); format: cell-based, bovine viral diarrhea virus; details: read-out: EC50 protection of MDBK cells from BVDV-induced cytotoxicity
Method: as §1
Individual potencies (EC50) of each of the drugs for inhibition of BVDV-induced cytopathic effects in MDBK cells were determined for each combination experiment (see Table 9).

[7] = CC50 in plaque reduction assay table (Example 3); format: cell-based; details: bovine
[8] = MOI 0.01, combination experiments, compound alone, read-out: EC50 protection from BVDV-induced cytotoxicity, individual compound
[9] = read-out: EC50 (50% CPE reduction), MOI = 0.01
[10] = read-out: EC50 (50% CPE reduction), MOI = 0.1
[11] = Bovine viral diarrhea virus isolates and strains, MDBK

O[C@H]1[C@H](O)[C@@H](O)CN2CC[C@H](O)[C@H]12 [Castanospermine, [1S-(1α,6β,7α,8β,8αβ)]-octahydro-1,6,7,8-indoli-zinetetrol]
CC50 [1]: > 1000 µM | EC50 ([2]; Interferon-α2b added 0 IU/mL, read-out: Average Castanospermine EC50): 52 µM | EC50 ([2]; Interferon-α2b added 0.7 IU/mL, read-out: Average Castanospermine EC50): 39 µM | EC50 ([2]; Interferon-α2b added 2.2 IU/mL, read-out: Average Castanospermine EC50): 19 µM | EC50 ([2]; Interferon-α2b added 6.7 IU/mL, read-out: Average Castanospermine EC50): 12 µM | EC50 ([2]; Interferon-α2b added 20 IU/mL, read-out: Average Castanospermine EC50): 1 µM | EC50 ([2]; Interferon-α2b added 60 IU/mL, read-out: Average Castanospermine EC50): < 1 µM | EC50 [2, 8]: 59 ± 16 µM | dose-dependent reduction in EC50 of castanospermine ([2]; addition of increasing concentrations of interferon-α2b): > 52 fold | fold reduction of castanospermine EC50 (isobologram) ([2]; at 10 IU/mL of interferon-α2b): > 7 fold | fold decrease of castanospermine EC50 ([2]; at 20 IU/mL interferon-α2b): ~50 fold | EC50 [3, 9]: 61.5 ± 15.4 µM | EC50 [3, 10]: 177 ± 14.5 µM | EC50 [4]: 110 ± 82 µM | EC50 [5]: 14 ± 8 µM | EC90 [5]: 83 ± 21 µM | EC50 [6, 11]: > 100 µM | CC50 [7]: > 1000 µM

NC12CC3CC(CC(C3)C1)C2 [Amantadine, amantadine]
EC50 [6, 11]: 400 µM

NC(=O)c1ncn([C@@H]2O[C@H](CO)[C@@H](O)[C@H]2O)n1 [Ribavirin, reference compound]
CC50 [1]: 57 ± 34 µM | EC50 [2, 8]: 4 ± 2 µM | fold reduction of ribavirin EC50 (isobologram) ([2]; at about 10 IU/mL interferon-α2b): > 6 fold | EC50 [3, 9]: 4.4 ± 2 µM | EC50 [3, 10]: 9 ± 1 µM | EC50 [4]: 9.1 ± 6.3 µM | EC50 [5]: 2.4 ± 2.2 µM | EC90 [5]: 4.9 ± 1.9 µM | CC50 ([7]; MDBK cells, Table 3, read-out: CC50): 250 µM

CCCCN1C[C@H](O)[C@@H](O)[C@H](O)[C@H]1CO [NB-DNJ, N-butyl-DNJ]
EC50 ([6]; MOI 0.05, individual drug): > 500 µM

Interferon-α2b
Average Interferon-α2b EC50 ([2]; Castanospermine added 0 μM): 16 IU/mL | Average Interferon-α2b EC50 ([2]; Castanospermine added 1.2 μM): 18 IU/mL | Average Interferon-α2b EC50 ([2]; Castanospermine added 3.7 μM): 13 IU/mL | Average Interferon-α2b EC50 ([2]; Castanospermine added 11 μM): 7 IU/mL | Average Interferon-α2b EC50 ([2]; Castanospermine added 33 μM): 1 IU/mL | Average Interferon-α2b EC50 ([2]; Castanospermine added 100 μM): <1 IU/mL | EC50 protection from BVDV-induced cytotoxicity, individual compound ([2]; MOI 0.01, combination experiments, compound alone): 19 ± 6 IU/mL | fold decrease of interferon-α2b EC50 ([2]; at 11 μM of castanospermine): ~2 fold
